Experimental data reported in PMC5428521, “Identification of a Novel, Small Molecule Partial Agonist for the Cyclic AMP Sensor, EPAC1” (Scientific Reports, 2017).
Read-outs that look alike come from different tables or passages of the source.

Legend:
EPAC1-CNB = molecular target: T1, EPAC1-CNB (Homo sapiens, UniProt O95398); test: 8-NBD-cAMP competition assay with EPAC1-CNB; type: binding; details: for IC50: 7-point dose response, 75 µM top concentration, 0.75% DMSO
T1 construct: EPAC1-CNB (amino acids 169–318 of EPAC1); made in house; host or cells: BL-21 Escherichia coli (pGEX-6P-1)
T1 sequence (O95398 169-318 isoform O95398-3): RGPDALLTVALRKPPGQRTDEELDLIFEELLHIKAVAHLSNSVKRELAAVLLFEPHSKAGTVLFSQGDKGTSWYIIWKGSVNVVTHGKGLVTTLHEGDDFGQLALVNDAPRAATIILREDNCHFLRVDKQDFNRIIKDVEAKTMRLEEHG
Protocol: Optimisation of assay conditions was performed in 96 well black assay plates (Greiner). Comparison of reference molecules, dose response curves and pilot screen were done in black, low volume 384 assay plates (Greiner). Liquids were dispensed using a Biomek Fx laboratory automation workstation with a 96-multichannel pipetting head (Beckman Coulter) for optimisation, whereas the Echo® Liquid Handler (Labcyte) and Wellmate automated dispenser (Thermo Matrix) were employed for pilot screens (see library screening).
This was done using the optimised assay conditions developed during the study. Library compounds were transferred from pre-prepared, 1000x stock Echo® 384 LDV source plates (Labcyte) into black, low volume 384 assay plates (Greiner) at 25 nl volumes, using an Echo® Liquid Handler (Labcyte), maintaining 0.1–1% DMSO throughout. EPAC1-CNB (0.8 µM) was immediately added using a Wellmate automated dispenser (Thermo Matrix). Plates were centrifuged at 800 rpm, 10 s, and then incubated for 30 minutes, RT, to promote compound-protein complex formation. […] The assay was incubated at room temperature and the fluorescence intensity at 480/535 nm (ex/em) was measured after 4–15 hours using the Envision plate reader.

GST = GST (Schistosoma japonicum, UniProt P08515); test: Ligand observed NMR (1D and waterLOGSY) with GST alone; type: binding; details: compound 50 µM, GST 2.5 µM
Sequence of GST (P08515 whole entry): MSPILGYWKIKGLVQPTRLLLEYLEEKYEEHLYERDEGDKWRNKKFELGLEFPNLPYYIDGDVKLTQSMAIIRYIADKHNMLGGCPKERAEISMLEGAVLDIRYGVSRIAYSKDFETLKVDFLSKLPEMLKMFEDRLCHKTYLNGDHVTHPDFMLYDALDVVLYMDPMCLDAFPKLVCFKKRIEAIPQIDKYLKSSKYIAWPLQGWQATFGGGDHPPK
Source text: Given that I942 seems to exert selective agonist properties against EPAC1, but not EPAC2, we next sought to validate whether our isolated ligands can interact with EPAC1 and EPAC2. Ligand observed nuclear magnetic resonance (NMR) is a valuable tool for the identification and validation of small molecule ligands. We therefore used one dimensional proton (1D) and water-ligand observed by gradient spectroscopy (waterLOGSY) NMR to confirm the ability of I942 and I178 to bind to the purified CNBs of EPAC1 and EPAC2, in comparison with the commercially available EPAC1 antagonist, ESI-09[32]. In order to assess ligand/CNB interaction, 1D and waterLOGSY experiments were performed on each compound (50 µM) in the presence or absence of 2.5 µM EPAC-CNB. In the absence of protein, each test compound produced a well-resolved 1D spectrum and a region of each spectrum was chosen to display distinctive spectral peaks originating from the ligand (Fig. 6). In the absence of protein, the corresponding waterLOGSY peaks were small, or absent, due to the negligible signal produced by saturation transfer from water to the freely tumbling small molecule. […] In waterLOGSY spectra, protein-mediated saturation transfer can only occur if the protein-ligand complex has a substantial lifetime. […]
(A) One dimensional proton (1D) and waterLOGSY (WL) spectra were performed on samples containing hit compound I942 (50 µM) in the absence and presence of EPAC1-CNB, EPAC2-CNB or GST alone, as indicated (2.5 µM). […] Interaction between compound and protein was assessed through comparison of the compound alone and protein-compound sample spectra. […]
All NMR spectra were recorded on a Bruker AVANCE IIIHD 600 spectrometer equipped with a TCI cryoprobe at 285 K. Test compounds were prepared in deuterated DMSO and diluted to given experimental concentrations in NMR buffer (20 mM Na2PO4, pH 7.0, 50 mM NaCl, 0.1% (w/v) NaN3, 5% (v/v) D2O) with a final DMSO concentration below 0.1%. […] One dimensional proton (1D) and waterLOGSY spectra were recorded for all compounds tested, using pulse sequences as previously described. […]

Row | SMILES | Kd (EPAC1-CNB) [µM] | IC50 (EPAC1-CNB; IC50, 8-NBD-cAMP binding assay) [µM] | affinity, fold lower than that of cAMP (EPAC1-CNB; competition assay, isolated CNB domain) | NMR interaction with GST alone (GST) | IC50 (EPAC1-CNB; read-out: IC50, 8-NBD-cAMP binding assay) [µM]
1 | Cc1ccc(S(=O)(=O)NC(=O)COc2ccc3ccccc3c2)c(C)c1 [I942, N-(2,4-dimethylbenzenesulfonyl)-2-(naphthalen-2-yloxy)acetamide] | ~40 | ~35 | about 10 fold | No peak broadening | –
2 | O=C(COc1ccc2ccccc2c1)NS(=O)(=O)c1ccccc1 [I178, N-(benzenesulfonyl)-2-(naphthalen-2-yloxy)acetamide] | – | – | – | No peak broadening | ~40
